These results are taken from ChEMBL document CHEMBL5291721, “A preclinical secondary pharmacology resource illuminates target-adverse drug reaction associations of marketed drugs” (Nat Commun, 2023).

Some results are limits rather than exact numbers.

Test [1] has as its target T1, Cholecystokinin receptor type A (Homo sapiens, UniProt P32238).
T1 sequence (P32238 whole entry): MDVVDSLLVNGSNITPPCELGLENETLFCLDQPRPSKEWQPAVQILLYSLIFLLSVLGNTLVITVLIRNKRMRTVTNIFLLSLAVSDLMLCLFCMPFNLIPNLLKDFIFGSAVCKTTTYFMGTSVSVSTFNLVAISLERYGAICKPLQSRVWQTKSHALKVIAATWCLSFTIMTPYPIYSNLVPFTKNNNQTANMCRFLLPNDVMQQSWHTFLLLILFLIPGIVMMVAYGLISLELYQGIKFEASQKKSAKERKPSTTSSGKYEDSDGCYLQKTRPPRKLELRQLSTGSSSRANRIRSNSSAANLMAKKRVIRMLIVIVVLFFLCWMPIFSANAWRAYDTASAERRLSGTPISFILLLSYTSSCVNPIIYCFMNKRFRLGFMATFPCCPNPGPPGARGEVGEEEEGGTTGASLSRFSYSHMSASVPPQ

Test [2] has as its target 5-hydroxytryptamine receptor 2B (Homo sapiens, UniProt P41595). Format: functional, cell-based.
In test [3] the target is T2, Alpha-2A adrenergic receptor (Homo sapiens, UniProt P08913).
T2 sequence (P08913 whole entry): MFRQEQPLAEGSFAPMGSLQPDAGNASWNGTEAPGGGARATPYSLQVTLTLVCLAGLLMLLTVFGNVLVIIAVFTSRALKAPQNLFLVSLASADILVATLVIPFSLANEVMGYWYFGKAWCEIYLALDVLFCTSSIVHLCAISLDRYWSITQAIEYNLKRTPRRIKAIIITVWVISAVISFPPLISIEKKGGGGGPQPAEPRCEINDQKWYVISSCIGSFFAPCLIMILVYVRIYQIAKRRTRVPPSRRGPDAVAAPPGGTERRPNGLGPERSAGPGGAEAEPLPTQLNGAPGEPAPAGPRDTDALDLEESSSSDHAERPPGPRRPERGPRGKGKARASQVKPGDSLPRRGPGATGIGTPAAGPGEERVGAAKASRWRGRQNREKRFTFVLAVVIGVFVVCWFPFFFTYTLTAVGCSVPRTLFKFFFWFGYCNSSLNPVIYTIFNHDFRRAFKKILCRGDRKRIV
It is filed as functional, cell-based.

For test [4], the target named is Gamma-aminobutyric acid receptor subunit alpha-1 (Rattus norvegicus, UniProt P62813). It is filed as functional.
In test [5] the target is T3, Prostaglandin G/H synthase 1 (Rattus norvegicus, UniProt Q63921).
T3 sequence (Q63921 whole entry): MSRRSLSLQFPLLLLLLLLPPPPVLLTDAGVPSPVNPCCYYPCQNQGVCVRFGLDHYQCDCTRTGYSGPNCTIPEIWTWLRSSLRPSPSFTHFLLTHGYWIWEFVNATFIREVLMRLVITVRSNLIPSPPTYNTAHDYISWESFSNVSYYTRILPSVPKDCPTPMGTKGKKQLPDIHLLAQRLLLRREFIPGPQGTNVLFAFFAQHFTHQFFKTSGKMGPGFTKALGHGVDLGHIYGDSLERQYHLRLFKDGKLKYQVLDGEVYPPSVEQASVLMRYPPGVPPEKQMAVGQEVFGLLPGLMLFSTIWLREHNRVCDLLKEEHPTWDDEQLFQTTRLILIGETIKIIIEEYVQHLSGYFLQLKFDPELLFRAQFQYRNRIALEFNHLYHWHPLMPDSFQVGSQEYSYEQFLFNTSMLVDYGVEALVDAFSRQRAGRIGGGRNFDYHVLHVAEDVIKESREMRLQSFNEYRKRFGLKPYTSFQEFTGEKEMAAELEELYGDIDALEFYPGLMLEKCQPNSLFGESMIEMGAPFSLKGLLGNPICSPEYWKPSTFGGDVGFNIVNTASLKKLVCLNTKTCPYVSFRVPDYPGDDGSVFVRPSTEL
It is filed as functional.

Test [6] has as its target T4, 5-hydroxytryptamine receptor 3A (Homo sapiens, UniProt P46098).
T4 sequence (P46098 whole entry): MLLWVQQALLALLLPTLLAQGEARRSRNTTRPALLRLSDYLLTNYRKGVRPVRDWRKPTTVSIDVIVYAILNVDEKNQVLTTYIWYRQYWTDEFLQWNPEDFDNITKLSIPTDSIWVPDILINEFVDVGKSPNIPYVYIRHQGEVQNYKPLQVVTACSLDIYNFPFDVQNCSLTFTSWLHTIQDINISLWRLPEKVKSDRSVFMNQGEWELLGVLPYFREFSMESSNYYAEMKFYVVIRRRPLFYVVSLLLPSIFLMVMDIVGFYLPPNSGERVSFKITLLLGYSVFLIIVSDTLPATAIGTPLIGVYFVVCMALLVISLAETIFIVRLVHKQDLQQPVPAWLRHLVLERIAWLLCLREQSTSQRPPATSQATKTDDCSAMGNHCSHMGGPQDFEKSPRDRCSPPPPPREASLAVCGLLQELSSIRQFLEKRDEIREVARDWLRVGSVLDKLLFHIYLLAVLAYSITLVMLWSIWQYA
It is filed as functional.

In test [7] the target is cGMP-inhibited 3',5'-cyclic phosphodiesterase 3A (Homo sapiens, UniProt Q14432). It is filed as functional.
For test [8], the target named is T5, Amine oxidase [flavin-containing] A (Homo sapiens, UniProt P21397).
T5 sequence (P21397 whole entry): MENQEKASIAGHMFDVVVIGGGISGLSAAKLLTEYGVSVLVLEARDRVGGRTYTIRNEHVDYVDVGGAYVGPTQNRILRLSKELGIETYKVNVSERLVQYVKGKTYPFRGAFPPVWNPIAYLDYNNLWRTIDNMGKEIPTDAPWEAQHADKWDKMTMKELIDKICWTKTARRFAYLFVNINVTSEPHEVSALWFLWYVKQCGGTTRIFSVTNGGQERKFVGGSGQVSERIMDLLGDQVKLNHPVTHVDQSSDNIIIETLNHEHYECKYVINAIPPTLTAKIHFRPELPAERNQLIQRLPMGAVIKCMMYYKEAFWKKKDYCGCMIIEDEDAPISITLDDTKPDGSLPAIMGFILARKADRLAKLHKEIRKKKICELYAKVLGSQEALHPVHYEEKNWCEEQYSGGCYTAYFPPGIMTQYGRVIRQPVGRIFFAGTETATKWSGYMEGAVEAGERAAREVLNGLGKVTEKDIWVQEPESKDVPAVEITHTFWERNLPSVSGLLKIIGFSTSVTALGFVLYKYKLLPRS
It is filed as functional.

Test [9] concerns the target T2, Alpha-2A adrenergic receptor. Format: functional, cell-based. This is another data set of the same source.
Test [10] has as its target Delta-type opioid receptor (Homo sapiens, UniProt P41143).
Test [11] addresses Adenosine receptor A2a (Homo sapiens, UniProt P29274).
Test [12] has as its target Voltage-gated inwardly rectifying potassium channel KCNH2 (Homo sapiens, UniProt Q12809). Format: functional. The note with it: read-out: AC50.
Note: assay procedure not described here.

Chain of 5-hydroxytryptamine receptor 2B (P41595 whole entry): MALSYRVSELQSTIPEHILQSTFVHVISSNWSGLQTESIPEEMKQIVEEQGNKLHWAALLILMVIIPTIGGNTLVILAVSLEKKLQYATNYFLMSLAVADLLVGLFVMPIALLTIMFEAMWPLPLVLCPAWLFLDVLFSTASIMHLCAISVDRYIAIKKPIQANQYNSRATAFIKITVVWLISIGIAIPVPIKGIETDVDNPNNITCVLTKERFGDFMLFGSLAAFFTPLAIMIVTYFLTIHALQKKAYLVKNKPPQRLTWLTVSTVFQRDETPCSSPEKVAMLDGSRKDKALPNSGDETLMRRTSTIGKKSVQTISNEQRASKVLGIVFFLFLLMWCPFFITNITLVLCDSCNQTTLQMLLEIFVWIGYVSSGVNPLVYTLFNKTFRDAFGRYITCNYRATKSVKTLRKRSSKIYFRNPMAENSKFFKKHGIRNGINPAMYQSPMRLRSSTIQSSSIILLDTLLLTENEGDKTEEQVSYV
Chain of Voltage-gated inwardly rectifying potassium channel KCNH2 (Q12809 whole entry): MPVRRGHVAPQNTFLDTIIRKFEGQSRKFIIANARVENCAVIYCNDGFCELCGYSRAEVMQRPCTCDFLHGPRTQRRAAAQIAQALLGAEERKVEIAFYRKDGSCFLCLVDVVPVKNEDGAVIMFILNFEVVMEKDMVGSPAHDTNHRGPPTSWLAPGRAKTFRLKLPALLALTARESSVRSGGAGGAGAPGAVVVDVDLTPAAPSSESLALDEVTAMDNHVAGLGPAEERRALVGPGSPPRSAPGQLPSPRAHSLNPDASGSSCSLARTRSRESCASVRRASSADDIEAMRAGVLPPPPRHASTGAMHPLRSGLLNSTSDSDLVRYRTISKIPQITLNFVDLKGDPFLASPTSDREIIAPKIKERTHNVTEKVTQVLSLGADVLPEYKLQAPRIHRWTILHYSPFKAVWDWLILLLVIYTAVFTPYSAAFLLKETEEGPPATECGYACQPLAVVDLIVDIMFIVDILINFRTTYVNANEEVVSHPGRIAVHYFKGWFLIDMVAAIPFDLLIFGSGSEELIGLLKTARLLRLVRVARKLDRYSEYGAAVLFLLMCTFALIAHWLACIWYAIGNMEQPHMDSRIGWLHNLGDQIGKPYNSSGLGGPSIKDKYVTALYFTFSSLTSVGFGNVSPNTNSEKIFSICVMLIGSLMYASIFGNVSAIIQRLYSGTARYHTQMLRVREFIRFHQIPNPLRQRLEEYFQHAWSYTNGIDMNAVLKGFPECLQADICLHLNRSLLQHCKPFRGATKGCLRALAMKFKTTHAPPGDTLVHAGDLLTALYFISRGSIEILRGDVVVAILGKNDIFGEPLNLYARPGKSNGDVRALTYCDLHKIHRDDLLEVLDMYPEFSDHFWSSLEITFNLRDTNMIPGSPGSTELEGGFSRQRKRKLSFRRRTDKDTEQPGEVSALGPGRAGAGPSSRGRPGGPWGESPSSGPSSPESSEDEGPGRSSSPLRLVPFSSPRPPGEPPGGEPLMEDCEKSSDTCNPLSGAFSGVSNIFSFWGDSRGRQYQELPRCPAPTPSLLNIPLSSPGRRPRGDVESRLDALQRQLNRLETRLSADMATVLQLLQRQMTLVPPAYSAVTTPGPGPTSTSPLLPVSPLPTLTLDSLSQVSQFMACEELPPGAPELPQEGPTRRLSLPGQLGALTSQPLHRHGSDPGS
Chain of cGMP-inhibited 3',5'-cyclic phosphodiesterase 3A (Q14432 whole entry): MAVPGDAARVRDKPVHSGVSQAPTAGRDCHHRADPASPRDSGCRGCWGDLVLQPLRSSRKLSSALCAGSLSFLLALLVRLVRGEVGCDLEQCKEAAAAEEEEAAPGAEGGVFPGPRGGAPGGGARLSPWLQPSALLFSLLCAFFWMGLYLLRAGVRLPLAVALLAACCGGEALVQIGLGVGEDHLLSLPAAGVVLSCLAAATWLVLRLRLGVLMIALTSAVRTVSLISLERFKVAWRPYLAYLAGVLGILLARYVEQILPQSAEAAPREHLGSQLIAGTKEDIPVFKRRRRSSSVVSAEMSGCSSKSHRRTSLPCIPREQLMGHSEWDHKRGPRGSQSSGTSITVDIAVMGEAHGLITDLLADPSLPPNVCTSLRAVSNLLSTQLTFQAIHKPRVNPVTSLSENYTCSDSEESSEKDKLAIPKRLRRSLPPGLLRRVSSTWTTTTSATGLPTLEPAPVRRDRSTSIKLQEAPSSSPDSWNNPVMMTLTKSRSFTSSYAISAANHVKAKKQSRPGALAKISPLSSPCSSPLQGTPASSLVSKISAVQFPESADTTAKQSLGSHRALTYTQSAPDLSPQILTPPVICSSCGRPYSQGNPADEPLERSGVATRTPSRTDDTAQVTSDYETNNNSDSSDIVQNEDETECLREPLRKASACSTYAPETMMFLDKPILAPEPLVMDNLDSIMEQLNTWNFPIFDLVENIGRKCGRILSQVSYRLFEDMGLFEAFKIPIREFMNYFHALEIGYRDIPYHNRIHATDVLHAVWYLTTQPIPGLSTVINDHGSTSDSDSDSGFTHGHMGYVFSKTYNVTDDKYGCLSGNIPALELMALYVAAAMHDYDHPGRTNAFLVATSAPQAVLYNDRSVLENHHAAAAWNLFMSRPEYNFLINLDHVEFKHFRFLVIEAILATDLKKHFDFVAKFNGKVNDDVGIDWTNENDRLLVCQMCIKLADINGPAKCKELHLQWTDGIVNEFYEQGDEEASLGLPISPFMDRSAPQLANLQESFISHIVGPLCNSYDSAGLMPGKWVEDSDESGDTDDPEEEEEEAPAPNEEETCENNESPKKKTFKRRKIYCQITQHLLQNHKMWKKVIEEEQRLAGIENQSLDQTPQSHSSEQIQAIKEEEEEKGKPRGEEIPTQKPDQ
Chain of Adenosine receptor A2a (P29274 whole entry): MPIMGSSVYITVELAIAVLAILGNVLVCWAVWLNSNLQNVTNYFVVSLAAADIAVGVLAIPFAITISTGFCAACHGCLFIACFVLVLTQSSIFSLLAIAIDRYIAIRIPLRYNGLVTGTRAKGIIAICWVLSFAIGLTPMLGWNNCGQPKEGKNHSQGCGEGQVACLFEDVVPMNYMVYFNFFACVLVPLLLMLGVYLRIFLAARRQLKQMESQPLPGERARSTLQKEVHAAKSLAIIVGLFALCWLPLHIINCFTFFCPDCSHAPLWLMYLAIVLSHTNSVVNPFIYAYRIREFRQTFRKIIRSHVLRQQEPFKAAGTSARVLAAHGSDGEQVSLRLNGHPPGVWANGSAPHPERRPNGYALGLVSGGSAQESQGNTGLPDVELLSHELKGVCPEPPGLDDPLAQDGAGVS
Chain of Delta-type opioid receptor (P41143 whole entry): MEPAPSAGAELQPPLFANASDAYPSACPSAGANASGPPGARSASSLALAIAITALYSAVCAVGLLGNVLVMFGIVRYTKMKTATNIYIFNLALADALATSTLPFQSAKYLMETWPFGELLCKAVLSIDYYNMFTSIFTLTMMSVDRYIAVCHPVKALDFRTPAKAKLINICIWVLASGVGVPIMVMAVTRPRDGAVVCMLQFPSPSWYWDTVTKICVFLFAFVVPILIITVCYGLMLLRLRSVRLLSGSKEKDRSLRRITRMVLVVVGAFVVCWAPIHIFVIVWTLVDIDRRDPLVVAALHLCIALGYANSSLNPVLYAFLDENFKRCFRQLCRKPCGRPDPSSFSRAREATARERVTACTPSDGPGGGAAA
Chain of Gamma-aminobutyric acid receptor subunit alpha-1 (P62813 whole entry): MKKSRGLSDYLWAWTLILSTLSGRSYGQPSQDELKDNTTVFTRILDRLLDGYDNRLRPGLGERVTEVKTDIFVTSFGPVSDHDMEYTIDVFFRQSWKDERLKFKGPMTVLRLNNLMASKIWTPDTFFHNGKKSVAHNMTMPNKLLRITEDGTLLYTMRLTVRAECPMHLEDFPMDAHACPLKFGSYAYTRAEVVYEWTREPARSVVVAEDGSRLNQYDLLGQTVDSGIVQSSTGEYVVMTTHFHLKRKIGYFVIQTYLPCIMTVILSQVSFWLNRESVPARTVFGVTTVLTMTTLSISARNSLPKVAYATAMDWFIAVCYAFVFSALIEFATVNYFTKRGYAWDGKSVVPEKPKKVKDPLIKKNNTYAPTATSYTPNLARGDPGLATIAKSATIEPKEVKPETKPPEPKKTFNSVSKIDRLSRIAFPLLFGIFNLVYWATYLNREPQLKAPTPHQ

With `CO[C@@H]1[C@@H](OC(N)=O)[C@@H](O)[C@H](Oc2ccc3c(O)c(NC(=O)c4ccc(O)c(CC=C(C)C)c4)c(=O)oc3c2C)OC1(C)C` [NOVOBIOCIN], the AC50 in [1], in [2], in test [3], in test [4], in test [5] and in test [6] was over 30 µM throughout. Further, the AC50 in test [7], in test [8], in [9], in test [10] and in test [11] was over 30 µM throughout.

For `C[C@@H](O)[C@H]1C(=O)N2C(C(=O)O)=C(SCCN=CN)C[C@H]12` [IMIPENEM ANHYDROUS], the AC50 in test [1] is over 300 µM; in test [2], over 300 µM; in [3], over 300 µM; in test [12], over 30 µM; in test [5], over 300 µM; in test [6] it was over 300 µM. The AC50 in test [7], in test [8], in test [9], in test [10] and in test [11] was over 300 µM each time.

Take `CN1CC2c3ccccc3Oc3ccc(Cl)cc3C2C1` (configuration not stated) [ASENAPINE]: the AC50 is over 30 µM in [1]; 0.0013 µM in test [2]; over 30 µM in [3]; over 30 µM in test [5]; 18 µM in test [6]; over 30 µM in [7]. The AC50 in [8] is over 30 µM; in [9] it was 0.079 µM; in test [10], over 30 µM; in test [11], over 30 µM.

`Cn1cnc2c(F)c(Nc3ccc(Br)cc3F)c(C(=O)NOCCO)cc21` [BINIMETINIB]: the AC50 in [1], in test [2], in test [3], in test [4], in test [5] and in [6] was over 30 µM each time. Also, the AC50 in test [7], in [8], in [9], in test [10] and in [11] was over 30 µM each time.

As for `CN(C)CCC=C1c2ccccc2CCc2ccccc21` [AMITRIPTYLINE], the AC50 in test [1] was over 30 µM; in test [3], over 10 µM; in test [4], over 10 µM; in [5], over 30 µM; in [6], 8.7 µM; in test [7], over 30 µM. Also, the AC50 in [8] was over 10 µM; in test [9], 9.1 µM; in test [10], over 30 µM; in [11] it was over 30 µM.

Consider `CC(=O)Oc1ccccc1C(=O)O` [ASPIRIN], for which the AC50 was over 30 µM in test [1]; over 10 µM in test [2]; over 10 µM in test [3]; over 10 µM in [4]; over 30 µM in test [12]; over 30 µM in test [6]. Besides, the AC50 was over 30 µM in [7]; over 30 µM in test [8]; over 10 µM in test [9]; over 30 µM in test [10]; over 30 µM in test [11].

As for `CN(C)CCCC1(c2ccc(F)cc2)OCc2cc(C#N)ccc21` (configuration not stated) [CITALOPRAM], the AC50 in test [1] is over 30 µM; in test [2], 0.678 µM; in test [3], over 10 µM; in [4], over 10 µM; in test [5] it was over 30 µM; in [6], over 30 µM. Moreover, the AC50 in test [7] was over 30 µM; in [8], over 10 µM; in test [9] it was over 10 µM; in test [10] it was over 30 µM; in test [11], over 30 µM.

For the compound `C[C@H](Nc1ncnc2[nH]cnc12)c1cc2cccc(Cl)c2c(=O)n1-c1ccccc1` [DUVELISIB], the AC50 in test [1], in test [2], in test [3], in [4], in [5] and in test [6] was over 30 µM each time. Also, the concentration at half-maximal activity (AC50) in test [7], in test [8], in test [9], in test [10] and in test [11] was over 30 µM each time.

`CC(C)NCC(O)COc1ccc(CC(N)=O)cc1` (configuration not stated) [ATENOLOL]: the AC50 in [1], in [3], in test [5], in test [6], in test [7] and in test [8] was over 30 µM in each case. The AC50 in test [9], in [10] and in [11] was over 30 µM throughout.

As to `CS(=O)(=O)Nc1ccc([N+](=O)[O-])cc1Oc1ccccc1` [NIMESULIDE], the AC50 in [1] was 6.2 µM; in test [3] it was over 30 µM; in test [4] it was over 30 µM; in test [12] it was over 30 µM; in test [5] it was over 30 µM; in test [6], over 30 µM. Moreover, the AC50 is over 30 µM in [7]; over 30 µM in [8]; over 30 µM in test [9]; over 30 µM in test [10]; 20 µM in test [11].

As for `CCOC(=O)Nc1ccc(NCc2ccc(F)cc2)nc1N` [FLUPIRTINE], the AC50 in test [1] is over 30 µM; in [2] it was over 30 µM; in test [3], over 30 µM; in [4] it was over 30 µM; in test [12] it was 27 µM; in test [6], over 30 µM. Moreover, the AC50 is over 30 µM in test [7]; over 30 µM in test [8]; 23 µM in [9]; over 30 µM in [10]; over 30 µM in [11].

In general, AC50 refers to the midpoint of the concentration-response curve, whichever way the signal moves.
